The record followed here is patent publication US20250085273A1, “NOVEL RAPID DRUG DISCOVERY FOR SEPSIS AND AGENTS FOR USE AS SEPSIS THERAPY” (priority 2023, published 2025).

Counter-ions that a name gives are not always drawn. Like-named read-outs stand apart in the source and are kept apart here.

Assay type in all cases: in vivo, Danio rerio
Data set [1] relates to 3-dpf Zebrafish Embryos Challenged with LPS (P. aeruginosa 60 μg/mL). The conditions noted are these: for Percent Rescue (Mort + Tail Edema): 3-dpf embryos, n=16; for Percent Rescue (Mort + Tail Edema) / rescue of tail edema and mortality (sepsis rescue rate) at 3-dpf / 3 dpf Embryos Percent Rescue (Mort + Tail Edema): compound 10 μM; for 3 dpf Embryos Percent Rescue (Mort + Tail Edema): initial 3-dpf screen shown for reference. Here is the method:
Healthy, normally developing embryos collected from the adult AB zebrafish spawning events were treated with 75 μM of 1-phenyl 2-thiourea (PTU) in EM prior to 24 hours post fertilization (hpf) to block pigmentation formation (Karlsson et al, 2001). These embryos were then placed into an incubator at 28.5° C. until they reached 3-dpf. Embryos were then removed from the incubator and plated individually into the wells of 96 well plates containing 50 μL of EM.
A super stock of 120 μg/mL of P. aeruginosa LPS was made up in EM in a glass container. This stock was then used to make sub stocks of 120 μg/mL P. aeruginosa LPS (positive control) and 120 μg/mL P. aeruginosa LPS containing 20 μM of test drug in glass scintillation vials. Immediately after the sub stocks were made, the wells were dosed with either 50 μL of 120 μg/mL of P. aeruginosa, 120 μg/mL of P. aeruginosa with 20 μM of test drug, or EM (1:1 Dilution). Each 96 well plate had one LPS positive control (n=16), 4 different test drugs with P. aeruginosa LPS (n=16 per drug), and one negative control (n=16). Once the plates were dosed, they were covered with parafilm and placed into an incubator at 28.5° C. The plates were removed at 6- and 24-hours post exposure to be scored for tail edema and mortality. All 644 drugs evaluated for rescue from mortality and tail edema induced by P. aeruginosa LPS exposure as compared to LPS-treated controls after 24 hours of exposure.
3-dpf embryos were challenged with 60 μg/mL P. aeruginosa LPS in combination with single 10 μM concentration of each compound for 24 hours (n=16 fish per compound). […] Other 29 compounds exceeded 60% rescue of tail edema and mortality at 24 hours post exposure.

The test system of data set [2] is 5-dpf zebrafish larvae challenged with P. aeruginosa LPS 60 μg/mL. To be noted: compound 10 μM; for 5 dpf Embryos Percent Rescue (Mort + Tail Edema): 5-dpf larvae. The source says:
Confirmatory testing followed the same methods as the initial testing but used 5-dpf larvae instead of the 3-dpf larvae that were used for the initial screening because they were easier to handle and replicated the methods of Philip et al. (2017).
Next, follow-on 5-dpf screening was implemented to confirm initial screening with more larvae. Zebrafish swim faster at 5-dpf (requiring more time to load 96 plates), and all major organ systems are functioning at 5-dpf and thus determined as advantageous for follow-on confirmation.

Data set [3] deals with zebrafish (4 dpf pre-treated, LPS exposure at 5-dpf) challenged with P. aeruginosa LPS 60 μg/mL. The conditions noted are these: number of n = 16 fish. Here is the method: Drugs identified with >80% rescue were subjected to additional testing. Drug pretreatment for 24 hours prior to LPS challenge was evaluated to determine if any prophylactic benefit could be realized with any of the top rescue drugs. The intent was to determine if drug pre-treatment might be used at the point of injury as a preventative therapeutic before the onset of infection and development of sepsis. Parallel groups of fish received a 24-hour drug pre-treatment or no drug pre-treatment prior to LPS challenge. For this test, 4 dpf PTU-treated zebrafish embryos were placed into 96 well plates containing 100 μL of EM. […] All plates were covered with parafilm and placed into an incubator at 28.5° C. for 24 hours. […] Once the plates were dosed, they were covered with parafilm and placed into an incubator at 28.5° C. The plates were removed at 6- and 24-hours post exposure and scored for tail edema and mortality. Once the 24-hour tail edema and mortality endpoints were collected, a neurobehavioral test was conducted as described in section 2.8.

The mark [4] stands for this setting: P. aeruginosa LPS 60 μg/mL, 24 hours, hydrochloride.
Setting [5] is: 3-dpf, P. aeruginosa LPS 60 μg/mL, 24 hours.
The mark [6] stands for this setting: P. aeruginosa LPS 60 μg/mL, 24 hours.
[7] abbreviates: 3-dpf, P. aeruginosa LPS 60 μg/mL, 24 hours, hydrochloride.
Setting [8] is: 24-hour 10 μM drug pre-treatment.

Turning to `O=C(Nc1nc(-c2cc(Cl)cs2)c(N2CCN(C3CCCCC3)CC2)s1)c1cnc(N2CCC(C(=O)O)CC2)c(Cl)c1` [Compound 3, Avatrombopag (hydrochloride)], in data set [1] (setting [4]), the “Percent Rescue (Mort + Tail Edema)” value is recorded as 56%.
On to `Cc1nc2n(c(=O)c1CCN1CCC(c3noc4cc(F)ccc34)CC1)CCCC2` [Compound 4, Risperidone], for which the “rescue of tail edema and mortality (sepsis rescue rate) at 3-dpf” value (“rescue … at 3-dpf” below) in data set [1] (setting [5]) is on record as 6%.
As for `N[C@@H]1C[C@H]1c1ccccc1.N[C@@H]1C[C@H]1c1ccccc1.O=S(=O)(O)O` [Compound 7, Tranylcypromine (hemisulfate)], the “5 dpf Embryos Percent Rescue (Mort + Tail Edema)” value (shortened to “5 dpf Embryos Percent Rescue”) in data set [2] came to 56%. For the same compound, the “Percent Rescue (Mort + Tail Edema)” value in data set [1] (setting [6]) came to 88%. Besides, in data set [1] (P. aeruginosa LPS 60 μg/mL), the “3 dpf Embryos Percent Rescue (Mort + Tail Edema)” value (from here on “3 dpf Embryos Percent Rescue”) is recorded as 88%.
`C[C@H](N)[C@H](O)c1ccc(O)c(O)c1` [Compound 10, Levonordefrin]: the “5 dpf Embryos Percent Rescue” value in data set [2] stood at 75%. In addition, the “Percent Rescue (Mort + Tail Edema)” value in data set [1] (setting [6]) is given as 63%. Also, the “3 dpf Embryos Percent Rescue” value in data set [1] (P. aeruginosa LPS 60 μg/mL) was found to be 63%.
On to `CC(C)NCC(O)COc1cccc2[nH]ccc12` (stereo not drawn) [Compound 12, Pindolol], for which, in data set [1] (setting [6]), the “Percent Rescue (Mort + Tail Edema)” value is on record as 56%.
Turning to `O=C(Nc1nc(-c2cc(Cl)cs2)c(N2CCN(C3CCCCC3)CC2)s1)c1cnc(N2CCC(C(=O)O)CC2)c(Cl)c1` [Compound 31, Avatrombopag], in data set [2], the “5 dpf Embryos Percent Rescue” value was found to be 31%. The “Percent Rescue (Mort + Tail Edema)” value in data set [1] (setting [6]) is given as 75%. In data set [1] (P. aeruginosa LPS 60 μg/mL), the “3 dpf Embryos Percent Rescue” value amounted to 75%.
As to `CN[C@H]1CC[C@@H](c2ccc(Cl)c(Cl)c2)c2ccccc21` [Compound 37, Sertraline (hydrochloride)], in data set [2], the “5 dpf Embryos Percent Rescue” value was found to be 31%. In addition, the “Percent Rescue (Mort + Tail Edema)” value in data set [1] (setting [6]) stood at 88%. Also, the “3 dpf Embryos Percent Rescue” value in data set [1] (P. aeruginosa LPS 60 μg/mL) is given as 88%.
`CC(C)(C)c1ccc(C(O)CCCN2CCC(C(O)(c3ccccc3)c3ccccc3)CC2)cc1` (stereo not drawn) [Compound 44, Terfenadine]: the “5 dpf Embryos Percent Rescue” value in data set [2] is recorded as 0%. Also, in data set [1] (setting [6]), the “Percent Rescue (Mort + Tail Edema)” value was determined as 75%. Further, in data set [1] (3-dpf, 24 hours), the pericardial edema observation result is “had pericardial edemas”. Besides, the “mortality (survival) in 3-dpf initial screen” value in data set [1] (setting [5]) is listed as “alive at 24 hours”. In addition, the “3 dpf Embryos Percent Rescue” value in data set [1] (P. aeruginosa LPS 60 μg/mL) is reported as 75%.
With `Cc1nc2n(c(=O)c1CCN1CCC(c3noc4cc(F)ccc34)CC1)CCCC2O` (stereo not drawn) [Compound 61, Paliperidone], the “rescue … at 3-dpf” value in data set [1] (setting [5]) is on record as 6%.
`Clc1ccc(CCCOCCCN2CCCCC2)cc1` [Compound 126, Pitolisant hydrochloride]: the “rescue … at 3-dpf” value in data set [1] (setting [7]) amounted to 38%.
For the compound `CC(C)(C(=O)O)c1ccc(C(O)CCCN2CCC(C(O)(c3ccccc3)c3ccccc3)CC2)cc1` (stereo not drawn) [Compound 137, Fexofenadine], in data set [1] (3-dpf, P. aeruginosa LPS 60 μg/mL), the “rescue of tail edema in 3-dpf initial screen” value is “did not rescue tail edema”. For the same compound, the “mortality (survival) in 3-dpf initial screen” value in data set [1] (setting [5]) is “did rescue mortality”.
Take `Nc1ccc(S(=O)(=O)c2ccc(N)cc2)cc1` [Compound 155, Dapsone]: the “5 dpf Embryos Percent Rescue” value in data set [2] came out at 25%. In addition, the “Percent Rescue (Mort + Tail Edema)” value in data set [1] (setting [6]) was found to be 69%. In addition, the “3 dpf Embryos Percent Rescue” value in data set [1] (P. aeruginosa LPS 60 μg/mL) amounted to 69%.
In the case of `CN(C)[C@@H](CCOc1cccc2ccccc12)c1ccccc1` [Compound 156, Dapoxetine (hydrochloride)], in data set [2], the “5 dpf Embryos Percent Rescue” value worked out at 38%; the “rescue of tail edema and mortality (sepsis rescue rate) at 5-dpf” value (“rescue … at 5-dpf” for short) stood at 38%. For the same compound, the “Percent Rescue (Mort + Tail Edema)” value in data set [1] (setting [6]) worked out at 100%. Also, in data set [1] (setting [5]), the “rescue … at 3-dpf” value is on record as 100%. Moreover, the “3 dpf Embryos Percent Rescue” value in data set [1] (P. aeruginosa LPS 60 μg/mL) is 100%.
As to `CN(C)CCOC(C)(c1ccccc1)c1ccc(Cl)cc1` (stereo not drawn) [Compound 157, Chlorphenoxamine], in data set [1] (setting [6]), the “Percent Rescue (Mort + Tail Edema)” value is 50%.
With `O=C(O)c1cc2ccccc2c(Cc2c(O)c(C(=O)O)cc3ccccc23)c1O.OCCOCCN1CCN(C(c2ccccc2)c2ccc(Cl)cc2)CC1` [Compound 207, Hydroxyzine (pamoate)], in data set [1] (setting [6]), the “Percent Rescue (Mort + Tail Edema)” value is listed as 50%.
On to `CNCCc1ccccn1` [Compound 310, Betahistine], for which, in data set [1] (setting [6]), the “Percent Rescue (Mort + Tail Edema)” value amounted to 56%.
On the same count and under the same terms, the same measure for `C[C@H]1N=C(N(C)C)N=C(N)N1` [Compound 317, Imeglimin (hydrochloride)]: 50%; for `CN1CCc2c(c3ccccc3n2Cc2ccccc2)C1` [Compound 318, Mebhydrolin]: 56%.
Take `CCN(CC)CCNC(=O)c1c(C)[nH]c(/C=C2\C(=O)Nc3ccc(F)cc32)c1C` [Compound 354, Sunitinib (Malate)]: in data set [2], the “5 dpf Embryos Percent Rescue” value is given as 100%; the “rescue … at 5-dpf” value is 100%. Further, the “Percent Rescue (Mort + Tail Edema)” value in data set [1] (setting [6]) is recorded as 88%. The “rescue … at 3-dpf” value in data set [1] (setting [5]) is listed as 88%. Besides, the “3 dpf Embryos Percent Rescue” value in data set [1] (P. aeruginosa LPS 60 μg/mL) came out at 88%.
As to `Cc1cc(Nc2ncc(Cl)c(Nc3ccccc3S(=O)(=O)C(C)C)n2)c(OC(C)C)cc1C1CCNCC1` [Compound 378, Ceritinib dihydrochloride], the “5 dpf Embryos Percent Rescue” value in data set [2] is on record as 38%. In addition, the “Percent Rescue (Mort + Tail Edema)” value in data set [1] (setting [6]) amounted to 75%. For the same compound, the “3 dpf Embryos Percent Rescue” value in data set [1] (P. aeruginosa LPS 60 μg/mL) is reported as 75%.
Regarding `CNCC[C@H](Oc1cccc2ccccc12)c1cccs1` [Compound 386, Duloxetine (hydrochloride)], the “Percent Rescue (Mort + Tail Edema)” value in data set [1] (setting [6]) amounted to 50%.
Regarding `CNS(=O)(=O)CCc1ccc2[nH]cc(C3CCN(C)CC3)c2c1` [Compound 438, Naratriptan (hydrochloride)], the “Percent Rescue (Mort + Tail Edema)” value in data set [1] (setting [6]) came to 50%.
`COc1cc2ncnc(Nc3ccc(F)c(Cl)c3)c2cc1OCCCN1CCOCC1` [Compound 516, Gefitinib (ZD1839)]: the “Percent Rescue (Mort + Tail Edema)” value in data set [1] (setting [6]) turned out to be 50%.
On to `CCN(CC)CC(=O)Nc1c(C)cccc1C` [Compound 549, Lidocaine hydrochloride], for which, in data set [1] (setting [6]), the “Percent Rescue (Mort + Tail Edema)” value is on record as 56%.
`Clc1ccc(CCCOCCCN2CCCCC2)cc1` [Compound 589, Pitolisant hydrochloride]: the “Percent Rescue (Mort + Tail Edema)” value in data set [1] (setting [4]) came to 56%. Also, the “rescue … at 3-dpf” value in data set [1] (setting [7]) worked out at 56%.
As to `CC(C)(C)c1cc(NC(=O)Nc2ccc(-c3cn4c(n3)sc3cc(OCCN5CCOCC5)ccc34)cc2)no1` [Compound 598, Quizartinib (AC220)], the “Percent Rescue (Mort + Tail Edema)” value in data set [1] (setting [6]) is reported as 56%.
Consider `CCN(CC)CCNC(=O)c1c(C)[nH]c(/C=C2\C(=O)Nc3ccc(F)cc32)c1C` [Compound 621, Sunitinib Malate], for which, in data set [2], the “5 dpf Embryos Percent Rescue” value is 100%; the “rescue … at 5-dpf” value is listed as 100%. In data set [1] (setting [6]), the “Percent Rescue (Mort + Tail Edema)” value is 94%. In addition, the “rescue … at 3-dpf” value in data set [1] (setting [5]) is 88%. Also, in data set [1] (P. aeruginosa LPS 60 μg/mL), the “3 dpf Embryos Percent Rescue” value turned out to be 94%.
Turning to `CCN(CC)CCNC(=O)c1c(C)[nH]c(/C=C2\C(=O)Nc3ccc(F)cc32)c1C.O=C(O)C[C@H](O)C(=O)O` [Sunitnib (malate)], in data set [3] (10 μM drug with LPS 60 μg/mL, no 24-hour pre-treatment), the “24 hour Tail Edema, No-Drug Pretreatment” value was found to be 4 fish. Moreover, in data set [3] (setting [8]), the “24 Hour Mortality and Tail Edema, Drug Pretreatment” value was determined as 2 fish; the “24 Hour Mortality, Drug Pretreatment” value is recorded as 1 fish. In data set [3] (24-hour 10 μM drug pre-treatment before LPS 60 μg/mL), the “24 hour Tail Edema, Drug Pretreatment” value is recorded as 1 fish. In data set [3] (no 24-hour pre-treatment), the “24 Hour Mortality and Tail Edema, No-Drug Pretreatment” value worked out at 5 fish; the “24 Hour Mortality, No Drug Pretreatment” value was 1 fish.
Turning to Almotriptan (malate) [Compound 6], the “5 dpf Embryos Percent Rescue” value in data set [2] was found to be 63%. For the same compound, the “Percent Rescue (Mort + Tail Edema)” value in data set [1] (setting [6]) came out at 63%. The “3 dpf Embryos Percent Rescue” value in data set [1] (P. aeruginosa LPS 60 μg/mL) is recorded as 63%.
